Test results from PubChem BioAssay AID248 (DTP/NCI, 2004).
“And” between values parts separate entries of the source, which are not always exact repeats. Equal values may be shown once. Toxic doses and inconclusive results are not listed. No stated cut-off is given here; in the data, active means T/C of 150% or more; inactive means T/C below 125%.

System: L1210 leukemia ip in BDF1 mice, survival T/C
Assay: NCI In Vivo Anticancer Drug Screen. Data for tumor model L1210 Leukemia (intraperitoneal) in B6D2F1 (BDF1) mice
Conditions: endpoint: mean survival time, higher = longer survival
Procedure, shortened: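 Ratio derived from survival: compound-dosed mice over vehicle-dosed mice, all bearing a transplantable tumor.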

[1] = dose: 100.0 mg/kg/injection, schedule: Q04DX002 (ip), vehicle: Klucel (hydroxypropylcellulose) (HPC)
[2] = dose: 400.0 mg/kg/injection, schedule: Q04DX002 (ip), vehicle: Klucel (hydroxypropylcellulose) (HPC)
[3] = dose: 100.0 mg/kg/injection, schedule: Q04DX003 (ip), vehicle: Klucel (hydroxypropylcellulose) (HPC)

Measured: T/C

O=C1OC(c2cccc(Cl)c2)=N/C1=C\c1ccccc1
inactive: [1] 98 % of control | [2] 104 % of control

CC/C(=C\c1ccc(Cl)cc1)[N+](=O)[O-]
inactive: dose: 12.5 mg/kg/injection, schedule: Q01DX009 (ip), vehicle: Klucel (hydroxypropylcellulose) (HPC) 98 % of control | dose: 25.0 mg/kg/injection, schedule: Q01DX009 (ip), vehicle: Klucel (hydroxypropylcellulose) (HPC) 100 % of control | dose: 25.0 mg/kg/injection, schedule: Q04DX003 (ip), vehicle: Klucel (hydroxypropylcellulose) (HPC) 100 % of control | dose: 50.0 mg/kg/injection, schedule: Q01DX009 (ip), vehicle: Klucel (hydroxypropylcellulose) (HPC) 88 % of control | dose: 50.0 mg/kg/injection, schedule: Q04DX003 (ip), vehicle: Klucel (hydroxypropylcellulose) (HPC) 105 % of control | [3] 101 % of control and 111 % of control

C=CC[N+](C)([O-])c1ccc(C(=O)OC)cc1 (stereo not given)
inactive: dose: 100.0 mg/kg/injection, schedule: Q01DX001 (ip), vehicle: saline 107 % of control | dose: 200.0 mg/kg/injection, schedule: Q01DX001 (ip), vehicle: saline 102 % of control | dose: 400.0 mg/kg/injection, schedule: Q01DX001 (ip), vehicle: saline 96 % of control

COC1OC(CBr)C(OC(=O)c2ccccc2)C(OC(=O)c2ccccc2)C1OC(=O)c1ccccc1 (stereo not given)
inactive: [1] 101 % of control | dose: 200.0 mg/kg/injection, schedule: Q04DX002 (ip), vehicle: Klucel (hydroxypropylcellulose) (HPC) 96 % of control | [2] 90 % of control

Cc1nc(C)c(C)s1
inactive: dose: 100.0 mg/kg/injection, schedule: Q01DX009 (ip), vehicle: Klucel (hydroxypropylcellulose) (HPC) 95 % of control | [3] 102 % of control | dose: 200.0 mg/kg/injection, schedule: Q01DX009 (ip), vehicle: Klucel (hydroxypropylcellulose) (HPC) 95 % of control | dose: 200.0 mg/kg/injection, schedule: Q04DX003 (ip), vehicle: Klucel (hydroxypropylcellulose) (HPC) 100 % of control | dose: 400.0 mg/kg/injection, schedule: Q01DX009 (ip), vehicle: Klucel (hydroxypropylcellulose) (HPC) 90 % of control | dose: 400.0 mg/kg/injection, schedule: Q04DX003 (ip), vehicle: Klucel (hydroxypropylcellulose) (HPC) 104 % of control
